Measurements taken from patent US7074789B2, “Kinase inhibitors” (Amgen Inc., priority 1999, dated 2006).

Legend:
Assay type in all cases: biochemical
[1] = molecular target: T1, Lyn (Homo sapiens, UniProt P07948); assay: Kinase inhibition assay (33P transfer), Lyn; conditions: Table 6, Lyn-1 kinase inhibition class
T1 construct: Kinases are expressed as either kinase domains or full length constructs; made in house
How it was run: (§1)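 Each enzyme, purified to near homogeneity by affinity chromatography, was incubated with ATP carrying 33P and a substrate polymer fixed to the plate. Unbound label was removed with dilute phosphoric acid (0.5%) before adding scintillant and counting. Potency is given as the compound level cutting label uptake by 50%.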

[2] = molecular target: T2, Src (Homo sapiens, UniProt P12931); assay: Kinase inhibition assay (33P transfer), Src; conditions: Table 6, Src-1 kinase inhibition class
T2 construct: Kinases are expressed as either kinase domains or full length constructs; made in house
How it was run: as §1

[3] = molecular target: T3, Fyn (Homo sapiens, UniProt P06241); assay: Kinase inhibition assay (33P transfer), Fyn; conditions: read-out: Fyn-1
T3 construct: Kinases are expressed as either kinase domains or full length constructs; made in house
How it was run: as §1

[4] = molecular target: T4, Flt-1 (Homo sapiens, UniProt P17948); assay: Kinase inhibition assay (33P transfer), Flt-1
T4 construct: Kinases are expressed as either kinase domains or full length constructs; made in house
T4 sequence (P17948 27-1338, species assumed): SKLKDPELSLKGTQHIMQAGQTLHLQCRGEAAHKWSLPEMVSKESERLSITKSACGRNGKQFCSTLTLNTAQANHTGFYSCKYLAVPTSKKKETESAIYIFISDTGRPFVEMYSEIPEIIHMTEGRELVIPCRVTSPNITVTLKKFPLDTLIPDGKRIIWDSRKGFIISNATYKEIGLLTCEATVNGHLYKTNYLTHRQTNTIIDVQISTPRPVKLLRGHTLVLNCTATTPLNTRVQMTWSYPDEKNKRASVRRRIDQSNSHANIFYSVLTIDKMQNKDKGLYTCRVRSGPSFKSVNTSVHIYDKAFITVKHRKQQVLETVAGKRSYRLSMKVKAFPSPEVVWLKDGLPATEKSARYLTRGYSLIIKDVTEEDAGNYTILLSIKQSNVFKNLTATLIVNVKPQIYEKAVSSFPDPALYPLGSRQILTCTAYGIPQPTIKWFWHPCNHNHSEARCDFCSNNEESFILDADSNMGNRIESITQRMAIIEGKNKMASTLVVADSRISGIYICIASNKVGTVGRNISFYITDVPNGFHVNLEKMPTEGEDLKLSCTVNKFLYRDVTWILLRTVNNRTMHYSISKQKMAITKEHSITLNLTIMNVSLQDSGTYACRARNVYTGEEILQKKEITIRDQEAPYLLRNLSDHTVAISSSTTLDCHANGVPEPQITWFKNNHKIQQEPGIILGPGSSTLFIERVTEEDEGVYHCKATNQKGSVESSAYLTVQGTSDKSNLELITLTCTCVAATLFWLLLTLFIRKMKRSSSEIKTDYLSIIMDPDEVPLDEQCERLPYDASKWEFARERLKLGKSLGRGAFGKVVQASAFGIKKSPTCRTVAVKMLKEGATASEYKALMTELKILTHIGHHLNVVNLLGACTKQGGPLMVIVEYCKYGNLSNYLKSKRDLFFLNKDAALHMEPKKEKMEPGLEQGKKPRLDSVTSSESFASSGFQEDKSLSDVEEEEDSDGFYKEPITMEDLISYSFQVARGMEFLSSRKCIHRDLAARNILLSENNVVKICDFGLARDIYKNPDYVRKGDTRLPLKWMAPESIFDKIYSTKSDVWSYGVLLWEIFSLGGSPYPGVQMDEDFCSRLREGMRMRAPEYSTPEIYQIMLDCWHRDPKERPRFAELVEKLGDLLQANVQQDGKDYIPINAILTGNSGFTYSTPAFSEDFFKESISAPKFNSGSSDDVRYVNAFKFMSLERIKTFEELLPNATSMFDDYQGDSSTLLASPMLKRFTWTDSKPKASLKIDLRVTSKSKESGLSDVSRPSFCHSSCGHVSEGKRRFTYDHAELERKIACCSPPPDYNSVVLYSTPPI
How it was run: as §1

[5] = molecular target: T5, EPHB4 (Homo sapiens, UniProt P54760); assay: Kinase inhibition assay (33P transfer), EPHB4; conditions: read-out: EPHB4-1
T5 construct: Kinases are expressed as either kinase domains or full length constructs; made in house
T5 sequence (P54760 16-987): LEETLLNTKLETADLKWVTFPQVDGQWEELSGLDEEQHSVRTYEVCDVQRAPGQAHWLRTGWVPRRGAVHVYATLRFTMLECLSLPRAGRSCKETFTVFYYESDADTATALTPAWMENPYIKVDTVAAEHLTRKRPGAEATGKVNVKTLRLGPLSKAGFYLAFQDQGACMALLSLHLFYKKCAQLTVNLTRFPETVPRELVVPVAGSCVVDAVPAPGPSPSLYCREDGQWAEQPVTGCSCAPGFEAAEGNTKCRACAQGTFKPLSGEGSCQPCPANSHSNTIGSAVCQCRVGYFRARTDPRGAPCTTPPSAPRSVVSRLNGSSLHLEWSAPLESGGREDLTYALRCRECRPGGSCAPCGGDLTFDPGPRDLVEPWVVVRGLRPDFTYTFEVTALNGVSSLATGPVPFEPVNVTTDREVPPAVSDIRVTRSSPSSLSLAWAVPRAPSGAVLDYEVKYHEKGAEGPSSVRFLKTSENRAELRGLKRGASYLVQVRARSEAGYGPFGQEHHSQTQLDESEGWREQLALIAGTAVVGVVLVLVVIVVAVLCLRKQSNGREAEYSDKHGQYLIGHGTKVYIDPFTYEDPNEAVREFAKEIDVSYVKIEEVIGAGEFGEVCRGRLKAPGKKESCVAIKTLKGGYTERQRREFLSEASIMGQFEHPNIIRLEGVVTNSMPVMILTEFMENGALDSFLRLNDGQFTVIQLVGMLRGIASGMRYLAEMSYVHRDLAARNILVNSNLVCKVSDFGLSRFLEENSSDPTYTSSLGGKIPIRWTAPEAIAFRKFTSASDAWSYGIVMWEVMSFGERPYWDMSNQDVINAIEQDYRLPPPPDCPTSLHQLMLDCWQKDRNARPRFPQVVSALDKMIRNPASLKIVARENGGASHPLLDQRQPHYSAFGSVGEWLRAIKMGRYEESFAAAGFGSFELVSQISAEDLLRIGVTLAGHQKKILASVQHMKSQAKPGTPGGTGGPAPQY

[6] = molecular target: T6, Hck-1 (Homo sapiens, UniProt P08631); assay: Kinase inhibition assay (33P transfer), Hck; conditions: Table 6, Hck-1 kinase inhibition class
T6 construct: Kinases are expressed as either kinase domains or full length constructs; made in house

[7] = molecular target: T7, ErbB4 (Homo sapiens, UniProt Q15303); assay: Kinase inhibition assay (33P transfer), ErbB4; conditions: read-out: ErbB4-1
T7 construct: Kinases are expressed as either kinase domains or full length constructs; made in house

[8] = molecular target: T8, Ret-1 (Homo sapiens, UniProt P07949); assay: Kinase inhibition assay (33P transfer), Ret; conditions: Table 6, Ret-1 kinase inhibition class
T8 construct: Kinases are expressed as either kinase domains or full length constructs; made in house
T8 sequence (P07949 29-1114): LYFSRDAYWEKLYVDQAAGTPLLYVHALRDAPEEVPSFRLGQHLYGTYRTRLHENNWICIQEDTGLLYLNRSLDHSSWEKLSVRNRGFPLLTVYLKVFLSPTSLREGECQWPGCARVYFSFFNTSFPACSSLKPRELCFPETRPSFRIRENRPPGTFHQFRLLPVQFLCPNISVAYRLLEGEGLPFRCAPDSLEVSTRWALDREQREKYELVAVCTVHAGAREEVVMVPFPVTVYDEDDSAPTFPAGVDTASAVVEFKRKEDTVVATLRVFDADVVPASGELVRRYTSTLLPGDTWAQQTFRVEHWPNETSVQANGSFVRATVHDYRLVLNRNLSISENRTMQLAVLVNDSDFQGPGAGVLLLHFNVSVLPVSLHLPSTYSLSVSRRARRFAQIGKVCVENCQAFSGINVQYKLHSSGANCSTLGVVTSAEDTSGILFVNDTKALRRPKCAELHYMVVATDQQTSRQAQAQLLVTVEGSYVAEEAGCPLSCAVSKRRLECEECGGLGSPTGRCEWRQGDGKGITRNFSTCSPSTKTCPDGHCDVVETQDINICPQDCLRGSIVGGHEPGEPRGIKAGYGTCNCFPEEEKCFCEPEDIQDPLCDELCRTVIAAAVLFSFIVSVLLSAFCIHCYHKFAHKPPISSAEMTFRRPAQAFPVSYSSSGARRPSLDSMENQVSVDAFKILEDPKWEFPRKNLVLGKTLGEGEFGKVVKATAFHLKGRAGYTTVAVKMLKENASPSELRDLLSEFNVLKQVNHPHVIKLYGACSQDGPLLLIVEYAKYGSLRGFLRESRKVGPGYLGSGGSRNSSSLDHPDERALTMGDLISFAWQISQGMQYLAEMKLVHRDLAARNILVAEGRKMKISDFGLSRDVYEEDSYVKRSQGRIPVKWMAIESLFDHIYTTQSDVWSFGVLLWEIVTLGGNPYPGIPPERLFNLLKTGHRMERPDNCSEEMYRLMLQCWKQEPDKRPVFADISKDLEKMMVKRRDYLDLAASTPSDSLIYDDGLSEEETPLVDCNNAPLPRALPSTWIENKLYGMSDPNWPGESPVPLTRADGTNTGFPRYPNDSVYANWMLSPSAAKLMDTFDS

[9] = molecular target: T9, FGFR1 (Homo sapiens, UniProt P11362); assay: Kinase inhibition assay (33P transfer), FGFR1; conditions: read-out: FGFR1-1
T9 construct: Kinases are expressed as either kinase domains or full length constructs; made in house

[10] = molecular target: T10, Lck (Homo sapiens, UniProt P06239); assay: Kinase inhibition assay (33P transfer), Lck; conditions: read-out: Lck-1
T10 construct: Kinases are expressed as either kinase domains or full length constructs; made in house
How it was run: (§2)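 Recombinant kinase-domain or full-length fusion proteins (GST or His tag) served as enzyme. Substrate poly(Glu,Tyr) 4:1 or poly(Arg,Ser) 3:1 was bound to the plate; transferred 33P was read by liquid scintillation following acid washing.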

[11] = molecular target: T11, Zap-70 (Homo sapiens, UniProt P43403); assay: Kinase inhibition assay (33P transfer), Zap-70; conditions: read-out: Zap-1
T11 construct: Kinases are expressed as either kinase domains or full length constructs; made in house
T11 sequence (P43403 1-619): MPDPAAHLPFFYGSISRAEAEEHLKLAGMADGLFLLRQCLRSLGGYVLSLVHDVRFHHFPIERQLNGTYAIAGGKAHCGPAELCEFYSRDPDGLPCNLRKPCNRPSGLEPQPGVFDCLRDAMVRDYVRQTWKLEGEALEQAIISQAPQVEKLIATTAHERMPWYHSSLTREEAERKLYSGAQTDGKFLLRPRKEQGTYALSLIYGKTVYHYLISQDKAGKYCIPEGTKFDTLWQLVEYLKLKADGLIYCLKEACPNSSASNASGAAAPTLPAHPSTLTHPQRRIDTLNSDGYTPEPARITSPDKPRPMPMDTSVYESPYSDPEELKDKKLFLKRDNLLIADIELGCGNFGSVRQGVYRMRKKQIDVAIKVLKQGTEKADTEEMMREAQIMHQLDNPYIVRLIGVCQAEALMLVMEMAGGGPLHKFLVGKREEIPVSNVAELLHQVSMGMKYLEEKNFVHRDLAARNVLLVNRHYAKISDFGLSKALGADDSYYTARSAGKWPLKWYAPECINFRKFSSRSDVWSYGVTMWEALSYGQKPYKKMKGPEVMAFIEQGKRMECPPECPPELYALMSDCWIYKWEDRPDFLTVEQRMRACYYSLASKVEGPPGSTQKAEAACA
How it was run: as §2

[12] = molecular target: T12, Itk (Homo sapiens, UniProt Q08881); assay: Kinase inhibition assay (33P transfer), Itk; conditions: read-out: Itk-1
T12 construct: Kinases are expressed as either kinase domains or full length constructs; made in house
T12 sequence (Q08881 1-620): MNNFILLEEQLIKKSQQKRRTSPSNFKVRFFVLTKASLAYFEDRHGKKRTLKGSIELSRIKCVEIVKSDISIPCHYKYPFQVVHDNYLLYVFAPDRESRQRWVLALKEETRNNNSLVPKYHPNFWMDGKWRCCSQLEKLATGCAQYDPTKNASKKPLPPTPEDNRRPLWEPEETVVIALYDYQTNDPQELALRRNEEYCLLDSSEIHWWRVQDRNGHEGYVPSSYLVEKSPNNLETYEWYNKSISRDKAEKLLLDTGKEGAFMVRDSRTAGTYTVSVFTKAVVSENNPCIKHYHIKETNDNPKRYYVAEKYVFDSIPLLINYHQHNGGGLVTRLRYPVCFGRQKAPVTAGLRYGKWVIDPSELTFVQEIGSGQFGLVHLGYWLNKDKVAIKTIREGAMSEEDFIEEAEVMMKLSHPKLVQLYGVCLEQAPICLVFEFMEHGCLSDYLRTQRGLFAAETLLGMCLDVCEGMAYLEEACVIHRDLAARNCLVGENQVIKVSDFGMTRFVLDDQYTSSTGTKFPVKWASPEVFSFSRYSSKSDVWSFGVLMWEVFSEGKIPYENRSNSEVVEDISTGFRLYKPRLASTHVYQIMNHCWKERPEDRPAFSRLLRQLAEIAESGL
How it was run: as §1

[13] = molecular target: T13, EGFR (Homo sapiens, UniProt P00533); assay: Kinase inhibition assay (33P transfer), EGFR; conditions: Table 2, kinase inhibition class; read-out: EGFR-1
T13 construct: Kinases are expressed as either kinase domains or full length constructs; made in house
How it was run: as §1

[14] = molecular target: T14, ErbB2 (Homo sapiens, UniProt P04626); assay: Kinase inhibition assay (33P transfer), ErbB2; conditions: read-out: ErbB2-2
T14 construct: Kinases are expressed as either kinase domains or full length constructs; made in house
T14 sequence (P04626 23-1255, species assumed): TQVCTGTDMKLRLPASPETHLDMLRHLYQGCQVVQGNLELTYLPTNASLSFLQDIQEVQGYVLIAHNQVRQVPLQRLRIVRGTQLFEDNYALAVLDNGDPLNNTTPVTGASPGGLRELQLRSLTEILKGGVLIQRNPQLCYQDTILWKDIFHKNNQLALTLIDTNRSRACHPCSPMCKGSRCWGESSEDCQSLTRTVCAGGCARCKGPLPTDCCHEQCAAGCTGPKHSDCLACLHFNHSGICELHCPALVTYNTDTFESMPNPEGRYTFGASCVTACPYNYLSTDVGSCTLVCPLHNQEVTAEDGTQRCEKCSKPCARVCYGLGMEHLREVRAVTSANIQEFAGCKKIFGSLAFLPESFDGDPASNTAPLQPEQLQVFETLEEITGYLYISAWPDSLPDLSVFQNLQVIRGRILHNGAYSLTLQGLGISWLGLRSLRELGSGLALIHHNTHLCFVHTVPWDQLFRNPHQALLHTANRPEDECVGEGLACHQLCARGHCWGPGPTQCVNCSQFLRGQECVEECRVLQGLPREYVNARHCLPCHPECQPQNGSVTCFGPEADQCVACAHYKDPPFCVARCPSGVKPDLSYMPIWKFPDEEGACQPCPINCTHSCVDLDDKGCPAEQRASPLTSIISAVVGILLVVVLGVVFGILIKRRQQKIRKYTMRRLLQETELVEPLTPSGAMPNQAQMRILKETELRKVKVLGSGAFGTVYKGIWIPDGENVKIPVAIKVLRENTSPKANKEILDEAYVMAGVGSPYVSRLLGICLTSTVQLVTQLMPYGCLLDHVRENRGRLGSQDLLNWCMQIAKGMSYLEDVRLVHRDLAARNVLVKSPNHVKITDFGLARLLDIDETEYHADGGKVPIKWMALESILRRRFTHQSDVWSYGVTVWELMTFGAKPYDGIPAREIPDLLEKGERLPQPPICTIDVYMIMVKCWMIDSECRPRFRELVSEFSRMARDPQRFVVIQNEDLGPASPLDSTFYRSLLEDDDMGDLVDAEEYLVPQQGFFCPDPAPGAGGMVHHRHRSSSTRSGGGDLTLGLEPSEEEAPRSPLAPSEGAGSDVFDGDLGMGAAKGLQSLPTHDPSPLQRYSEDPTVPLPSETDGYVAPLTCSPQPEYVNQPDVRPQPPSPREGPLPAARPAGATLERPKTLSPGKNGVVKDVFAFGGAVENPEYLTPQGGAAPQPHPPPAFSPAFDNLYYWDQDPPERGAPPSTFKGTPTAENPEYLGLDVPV
How it was run: as §1

[15] = molecular target: T15, Kdr (Homo sapiens, UniProt P35968); assay: Kinase inhibition assay (33P transfer), Kdr; conditions: read-out: KDR-1
T15 construct: Kinases are expressed as either kinase domains or full length constructs; made in house
How it was run: as §2

[16] = molecular target: T16, Tek (Homo sapiens, UniProt Q02763); assay: Kinase inhibition assay (33P transfer), Tek; conditions: read-out: Tek-1
T16 construct: Kinases are expressed as either kinase domains or full length constructs; made in house
How it was run: as §1

[17] = molecular target: T17, c-Met (Homo sapiens, UniProt P08581); assay: Kinase inhibition assay (33P transfer), c-Met; conditions: Table 2, kinase inhibition class; read-out: Met-1
T17 construct: Kinases are expressed as either kinase domains or full length constructs; made in house
How it was run: as §1

[18] = molecular target: T18, AKT (Homo sapiens, UniProt Q9Y243); assay: Kinase inhibition assay (33P transfer), AKT; conditions: Table 2, kinase inhibition class; read-out: AKT3-1
T18 construct: Kinases are expressed as either kinase domains or full length constructs; made in house
How it was run: as §2

[19] = molecular target: T19, IGFR-1 (Homo sapiens, UniProt P08069); assay: Kinase inhibition assay, IGFR-1 (Table 2); conditions: Table 2, kinase inhibition class
T19 construct: Kinases are expressed as either kinase domains or full length constructs; made in house
T19 sequence (P08069 31-1367): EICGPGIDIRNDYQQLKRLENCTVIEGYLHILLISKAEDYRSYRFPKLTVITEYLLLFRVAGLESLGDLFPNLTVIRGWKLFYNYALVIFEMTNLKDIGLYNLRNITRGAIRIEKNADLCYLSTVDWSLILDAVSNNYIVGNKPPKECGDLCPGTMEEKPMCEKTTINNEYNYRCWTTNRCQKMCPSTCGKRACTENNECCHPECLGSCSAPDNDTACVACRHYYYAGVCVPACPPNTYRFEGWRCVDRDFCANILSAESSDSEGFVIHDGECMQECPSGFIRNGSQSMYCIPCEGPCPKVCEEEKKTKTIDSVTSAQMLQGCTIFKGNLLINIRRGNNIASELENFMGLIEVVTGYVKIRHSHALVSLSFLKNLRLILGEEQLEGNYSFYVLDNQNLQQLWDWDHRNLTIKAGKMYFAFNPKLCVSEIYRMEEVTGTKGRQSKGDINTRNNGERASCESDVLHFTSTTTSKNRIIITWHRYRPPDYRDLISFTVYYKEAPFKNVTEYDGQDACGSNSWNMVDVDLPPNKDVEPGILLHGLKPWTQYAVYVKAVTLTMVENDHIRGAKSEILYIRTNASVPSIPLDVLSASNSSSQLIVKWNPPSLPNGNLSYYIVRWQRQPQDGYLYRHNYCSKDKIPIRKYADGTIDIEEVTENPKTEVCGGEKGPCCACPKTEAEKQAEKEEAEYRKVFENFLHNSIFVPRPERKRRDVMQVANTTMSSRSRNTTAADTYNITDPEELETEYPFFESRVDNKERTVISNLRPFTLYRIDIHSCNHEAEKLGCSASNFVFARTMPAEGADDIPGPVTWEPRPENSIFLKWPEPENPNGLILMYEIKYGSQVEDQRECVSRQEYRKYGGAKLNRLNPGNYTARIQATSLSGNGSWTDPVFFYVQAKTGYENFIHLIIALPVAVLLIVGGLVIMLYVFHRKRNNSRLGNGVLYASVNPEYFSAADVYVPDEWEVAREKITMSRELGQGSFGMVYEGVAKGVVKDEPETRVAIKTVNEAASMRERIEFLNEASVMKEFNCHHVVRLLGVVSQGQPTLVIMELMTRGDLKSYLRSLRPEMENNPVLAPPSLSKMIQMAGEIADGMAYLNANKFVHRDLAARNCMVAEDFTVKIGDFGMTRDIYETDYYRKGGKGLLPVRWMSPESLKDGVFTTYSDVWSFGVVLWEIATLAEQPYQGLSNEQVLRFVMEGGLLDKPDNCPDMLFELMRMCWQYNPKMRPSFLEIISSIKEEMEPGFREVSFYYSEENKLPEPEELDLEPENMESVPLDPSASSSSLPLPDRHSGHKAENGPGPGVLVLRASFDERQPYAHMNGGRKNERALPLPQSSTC

[20] = molecular target: T20, PDGFRB (Homo sapiens, UniProt P09619); assay: Kinase inhibition assay (33P transfer), PDGFRB; conditions: read-out: PDGFRB-1
T20 construct: Kinases are expressed as either kinase domains or full length constructs; made in house

SMILES | IC50 [1] [µM] | IC50 [2] [µM] | IC50 [3] [µM] | IC50 [4] [µM] | IC50 [5] [µM] | IC50 [6] [µM] | IC50 [7] [µM] | IC50 [8] [µM] | IC50 [9] [µM] | IC50 [10] [µM] | IC50 [11] [µM] | IC50 [12] [µM] | IC50 [13] [µM] | IC50 [14] [µM] | IC50 [15] [µM] | IC50 [16] [µM] | IC50 [17] [µM] | IC50 [18] [µM] | IC50 [19] [µM] | IC50 [20] [µM]
COc1cc(Nc2ncnc(-n3c(N)nc4cc([N+](=O)[O-])ccc43)n2)cc(OC)c1OC [Compound 294] | > 10.3 | > 10.3 | > 10.3 | > 10.3 | 0.912 to 5.47 | > 10.3 | > 10.3 | 0.912 to 5.47 | > 10.3 |  |  |  |  |  |  |  |  |  |  | 
COc1cc(Nc2ncnc(-n3c(N)nc4cc(C(F)(F)F)ccc43)n2)cc(OC)c1OC [Compound 292] | 0.867 to 5.2 | 0.867 to 5.2 | 5.2 to 7.59 | 0.867 to 5.2 | 0.867 to 5.2 | > 9.75 | > 9.75 | 0.867 to 5.2 | 7.59 to 9.75 |  |  |  |  |  |  |  |  |  |  | 
COc1cc(Nc2ncnc(-n3c(N)nc4cc(Cl)ccc43)n2)cc(OC)c1OC [Compound 296] | 0.935 to 5.61 | 0.935 to 5.61 | 5.61 to 8.18 | 0.935 to 5.61 | < 0.935 | > 10.5 | 8.18 to 10.5 | < 0.935 | 0.935 to 5.61 |  |  |  |  |  |  |  |  |  |  | 
COc1cc(Nc2ncnc(Nc3cccc4ccccc34)n2)cc(OC)c1OCCN1CCOCC1 [Compound 1041] | < 0.796 | < 0.796 | 0.796 to 4.78 | 4.78 to 6.96 |  | 0.796 to 4.78 | 0.796 to 4.78 | 0.796 to 4.78 | 0.796 to 4.78 | < 0.796 | > 8.95 | 0.796 to 4.78 | < 0.796 | < 0.796 | < 0.796 | 0.796 to 4.78 | > 8.95 | > 8.95 | 0.796 to 4.78 | < 0.796
COc1cc(Nc2ncnc(-n3c(NCc4cccs4)nc4ccccc43)n2)cc(OC)c1OC [Compound 950] | < 0.817 | 0.817 to 4.9 | 0.817 to 4.9 | < 0.817 |  | > 9.19 | 0.817 to 4.9 | < 0.817 | < 0.817 | < 0.817 | > 9.19 | > 9.19 | 0.817 to 4.9 | 0.817 to 4.9 | < 0.817 | 4.9 to 7.15 | > 9.19 | > 9.19 | > 9.19 | < 0.817
COc1cc(Nc2ncnc(-n3c(NCc4ccccc4C)nc4ccccc43)n2)cc(OC)c1OC [Compound 511] | 0.804 to 4.82 | > 9.04 | > 9.04 | < 0.804 |  | > 9.04 | 0.804 to 4.82 | < 0.804 | < 0.804 | < 0.804 | > 9.04 | > 9.04 | > 9.04 | 7.03 to 9.04 | < 0.804 | 7.03 to 9.04 | > 9.04 | > 9.04 | > 9.04 | < 0.804
COc1ccc(CNc2nc3ccccc3n2-c2ncnc(Nc3cc(OC)c(OC)c(OC)c3)n2)cc1 [Compound 1037] | > 8.76 | > 8.76 | > 8.76 | 4.67 to 6.82 |  | > 8.76 | > 8.76 | 0.779 to 4.67 | 0.779 to 4.67 | > 8.76 | > 8.76 | > 8.76 | > 8.76 | > 8.76 | < 0.779 | > 8.76 | > 8.76 | > 8.76 | > 8.76 | > 8.76
